These compounds were tested against Human immunodeficiency virus type 1 protease (Human immunodeficiency virus 1, UniProt Q72874) (assay: Inhibitory concentration against HIV-1 Protease at pH 5.6 and at 37 degrees C).

Row | Compound | IC50 [µM]
1 | CCC(C)[C@H](NC(=O)[C@@H]1CCCN1P(=O)(OC)[C@@H](Cc1ccccc1)NC(=O)[C@H](CC(N)=O)NC(=O)OC(C)(C)C)C(=O)NCC(C)C (single isomer, unassigned) | 576
2 | CCC(C)[C@H](NC(=O)[C@@H]1CCCN1P(=O)(OC)[C@H](Cc1ccccc1)NC(=O)[C@H](CC(N)=O)NC(=O)OC(C)(C)C)C(=O)NCC(C)C (single isomer, unassigned; 2a) | 141
3 | CCC(C)[C@H](NC(=O)[C@@H]1CCCN1P(=O)(OC)[C@H](Cc1ccccc1)NC(=O)[C@H](CC(N)=O)NC(=O)OC(C)(C)C)C(=O)NCC(C)C (single isomer, unassigned; 2d) | 134

The next compounds have a lower IC50 than those just listed; values first:

Row | IC50 [µM] | Compound
4 | 118 | CCC(C)[C@H](NC(=O)[C@@H]1CCCN1P(=O)(O)C(Cc1ccccc1)NC(=O)[C@H](CC(N)=O)NC(=O)OC(C)(C)C)C(=O)NCC(C)C (stereo not given in full)
5 | 43.2 | CCC(C)[C@H](NC(=O)[C@@H]1CCCN1P(=O)(OC)C(Cc1ccccc1)NC(=O)[C@H](CC(N)=O)NC(=O)OC(C)(C)C)C(=O)NCC(C)C (single isomer, unassigned)

Reference: ChEMBL document CHEMBL1126452, “Synthesis of stereochemically defined phosphonamidate-containing peptides: Inhibitors for the HIV-1 proteinase” (Bioorg Med Chem Lett, 1992)
